Data set [1] deals with Normal human dermal fibroblasts (NHDF). The experiment in a line: Hyaluronic acid production promoting effect (ELISA of supernatant). The data set is classed as cell-based. To be noted: amount of hyaluronic acid produced, % with control group taken as 100%; sample at 10 mmol/L or less, 48 hours, N=3. The method in brief:
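NHDF pre-incubated 24 h, then exposed to samples at 10 mmol/L or less in serum-free D-MEM for 48 h. Supernatant hyaluronic acid quantified by ELISA, N=3, expressed as % of control (100%) and scored ± (<100%), + (100-120%), ++ (120-150%), +++ (150%).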

A short description of data set [2]: Stability test (residual rate by HPLC, odor, coloring). The data set is classed as physicochemical. The settings on record: 1% aqueous solution; for Coloring / Odor: total score of 10 panelists. The procedure: With a dilute potassium hydroxide aqueous solution, 1% aqueous solution of each test sample was adjusted to pH 6, placed in a 50 mL screw tube, sealed, […], and then subjected to HPLC measurement (using a liquid chromatograph manufactured by Shimadzu Corporation) to determine the residual rate from the peak area. The residual rate, odor, and coloring degree were evaluated according to the following methods and criteria.
Residual rate: • ⊚: 90% or more • ◯: 80% or more, less than 90% • Δ: 60% or more, less than 80% • x: 20% or more, less than 60% • xx: Less than 20%
Evaluation was made by 10 panelists according to the following criteria. • 3: Almost odorless • 2: There is a slight strange odor. • 1: A strong odor is detected.
Based on the evaluation results, the following classification was made: • ⊚: Total score of 10 panelists is 25 or more • ◯: Total score of 10 panelists is 20-24 • Δ: Total score of 10 panelists is 16-19 • x: The total score of 10 panelists is 15 or less
Evaluation was made by 10 panelists according to the following criteria. • 3: Almost no change compared to immediately after preparation. • 2: Color changes compared to immediately after preparation. • 1: Strongly colored compared to immediately after preparation.
Based on the evaluation results, the following classification was made: • ◯: Total score of 10 panelists is 25 or more • Δ: Total score of 10 panelists is 16-24 • x: The total score of 10 panelists is 15 or less

Data set [3] concerns B16 melanoma 4A5 cells. Kind of data set: Melanin production inhibitory effect (theophylline-induced melanin production). The data set is classed as cell-based, mouse. The settings on record: melanin production inhibition rate, sample at a concentration of 10 mM or less, 3 days culture, theophylline 1 mmol/L, N=4. In outline:
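Mouse B16 4A5 cells cultured 24 h in D-MEM/10% FBS, then 3 days with 1 mmol/L theophylline (final) plus sample at 10 mM or less. Melanin measured by alkali solubilization (1 mol/L NaOH, 60° C, 30 min, A405) against synthetic melanin standard, normalized to BCA protein. Inhibition rate relative to normal and control groups, scored as graded ranges; N=4.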

Data set [4] concerns Normal human dermal fibroblasts. The experiment in a line: Collagen production promoting effect (ELISA of supernatant). The data set is classed as cell-based. To be noted: amount of collagen produced, % with control group taken as 100%; sample at 10 mmol/L or less, 48 hours, N=3. In outline: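 Fibroblasts in D-MEM with 5% FBS were pre-incubated 24 h, then exposed to samples for 48 h. Free collagen in supernatant quantified by ELISA (N=3), expressed as % of control (control = 100%) at ≤10 mmol/L, scored ± (<100%), + (100-120%), ++ (120%).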

The mark [5] stands for this setting: pH 6, stored at 50° C., four weeks later.
Where [6] appears, read: pH 6, stored at 50° C., two weeks later.

This note sets out measurements from US20260001853A1, “ASCORBIC ACID DERIVATIVE OR SALT THEREOF, AND COSMETIC THEREOF” (SEIWA KASEI COMPANY, LIMITED, priority 2022, published 2026).

As for `CCCCCCCCCCCCCCC(O)COC1=C(OCC(C)(C)O)C(=O)O[C@@H]1[C@@H](O)CO` (stereo partly drawn) [Synthesis Example 37, 2-O-(2-hydroxyisobutyl)-3-O-(2-hydroxyhexadecyl) ascorbic acid], in data set [1], the “Hyaluronic acid production promoting effect” value is given as “++ (120-150%: ++)”. Further, the Residual rate entry in data set [2] (pH 6, 50° C., initial) is listed as “⊚ (⊚: 90% or more)”; in data set [2] (setting [5]), “⊚ (⊚: 90% or more)”; in data set [2] (setting [6]), “⊚ (⊚: 90% or more)”. Besides, the Coloring entry in data set [2] (pH 6, 50° C., initial) is given as “◯ (◯: Total score of 10 panelists is 25 or more)”; in data set [2] (setting [5]) it was “◯ (◯: Total score of 10 panelists is 25 or more)”; in data set [2] (setting [6]), “◯ (◯: Total score of 10 panelists is 25 or more)”. Further, the Odor result in data set [2] (pH 6, 50° C., initial) was “⊚ (⊚: Total score of 10 panelists is 25 or more)”; in data set [2] (setting [5]), “◯ (◯: Total score of 10 panelists is 20-24)”; in data set [2] (setting [6]), “◯ (◯: Total score of 10 panelists is 20-24)”. Further, in data set [3], the “Melanin production inhibition effect” value was “+ (20-40%: +)”. The “Collagen production promoting effect” value in data set [4] is recorded as “+ (100-120%: +)”.

Consider `CC(C)(O)COC1=C(OCC(O)c2ccccc2)C(C(O)CO)OC1=O` (stereo not drawn) [Synthesis Example 38, 2-O-(2-hydroxyisobutyl)-3-O-(2-hydroxyethylbenzene) ascorbic acid], for which the “Hyaluronic acid production promoting effect” value in data set [1] is on record as “++ (120-150%: ++)”. In data set [2] (pH 6, 50° C., initial), the Residual rate result was “⊚ (⊚: 90% or more)”, the Coloring entry was “⊚” and the Odor result is “◯ (◯: Total score of 10 panelists is 20-24)”. Moreover, in data set [2] (setting [5]), the Residual rate result is listed as “⊚ (⊚: 90% or more)”, the Coloring result was “◯ (◯: Total score of 10 panelists is 25 or more)” and the Odor entry is “◯ (◯: Total score of 10 panelists is 20-24)”. In data set [2] (setting [6]), the Residual rate result was “⊚ (⊚: 90% or more)”, the Coloring entry is given as “◯ (◯: Total score of 10 panelists is 25 or more)” and the Odor result was “◯ (◯: Total score of 10 panelists is 20-24)”. Besides, in data set [3], the “Melanin production inhibition effect” value is “++ (40-60%: ++)”. For the same compound, the “Collagen production promoting effect” value in data set [4] is given as “++ (120%: ++)”.

With `CC(O)COC1=C(OCC(C)(C)O)[C@@H]([C@@H](O)CO)OC1=O` (stereo partly drawn) [Synthesis Example 39, 3-O-(2-hydroxyisobutyl)-2-O-(2-hydroxypropyl) ascorbic acid], the “Hyaluronic acid production promoting effect” value in data set [1] is recorded as “+++ (150%: +++)”. For the same compound, in data set [2] (pH 6, 50° C., initial), the Residual rate result is given as “⊚ (⊚: 90% or more)”, the Coloring result is recorded as “⊚” and the Odor entry was “⊚ (⊚: Total score of 10 panelists is 25 or more)”. For the same compound, in data set [2] (setting [5]), the Residual rate entry is listed as “⊚ (⊚: 90% or more)”, the Coloring result is listed as “◯ (◯: Total score of 10 panelists is 25 or more)” and the Odor result is given as “◯ (◯: Total score of 10 panelists is 20-24)”. In data set [2] (setting [6]), the Residual rate entry is reported as “⊚ (⊚: 90% or more)”, the Coloring entry was “◯ (◯: Total score of 10 panelists is 25 or more)” and the Odor entry is reported as “◯ (◯: Total score of 10 panelists is 20-24)”. In addition, the “Melanin production inhibition effect” value in data set [3] is listed as “+++ (60-100%: +++)”. For the same compound, the “Collagen production promoting effect” value in data set [4] is reported as “+ (100-120%: +)”.

For the compound `CCC(O)COC1=C(OCC(C)(C)O)[C@@H]([C@@H](O)CO)OC1=O` (stereo partly drawn) [Synthesis Example 40, 3-O-(2-hydroxyisobutyl)-2-O-(2-hydroxybutyl) ascorbic acid], the “Hyaluronic acid production promoting effect” value in data set [1] was “++ (120-150%: ++)”. Further, in data set [2] (pH 6, 50° C., initial), the Residual rate entry is reported as “⊚ (⊚: 90% or more)”, the Coloring result is recorded as “◯ (◯: Total score of 10 panelists is 25 or more)” and the Odor result is given as “◯ (◯: Total score of 10 panelists is 20-24)”. In data set [2] (setting [5]), the Residual rate result is listed as “⊚ (⊚: 90% or more)”, the Coloring result is given as “◯ (◯: Total score of 10 panelists is 25 or more)” and the Odor entry was “◯ (◯: Total score of 10 panelists is 20-24)”. Also, in data set [2] (setting [6]), the Residual rate entry is reported as “⊚ (⊚: 90% or more)”, the Coloring result was “◯ (◯: Total score of 10 panelists is 25 or more)” and the Odor result was “◯ (◯: Total score of 10 panelists is 20-24)”. In addition, in data set [3], the “Melanin production inhibition effect” value is listed as “++ (40-60%: ++)”. In addition, the “Collagen production promoting effect” value in data set [4] is “++ (120%: ++)”.

For `CCCCCCCCC(O)COC1=C(OCC(C)(C)O)[C@@H]([C@@H](O)CO)OC1=O` (stereo partly drawn) [Synthesis Example 41, 3-O-(2-hydroxyisobutyl)-2-O-(2-hydroxydecyl) ascorbic acid], in data set [1], the “Hyaluronic acid production promoting effect” value is “++ (120-150%: ++)”. For the same compound, in data set [2] (pH 6, 50° C., initial), the Residual rate entry is “⊚ (⊚: 90% or more)”, the Coloring entry is “◯ (◯: Total score of 10 panelists is 25 or more)” and the Odor entry was “◯ (◯: Total score of 10 panelists is 20-24)”. For the same compound, in data set [2] (setting [5]), the Residual rate entry is “⊚ (⊚: 90% or more)”, the Coloring entry was “◯ (◯: Total score of 10 panelists is 25 or more)” and the Odor result is “◯ (◯: Total score of 10 panelists is 20-24)”. Further, in data set [2] (setting [6]), the Residual rate entry was “⊚ (⊚: 90% or more)”, the Coloring result is on record as “◯ (◯: Total score of 10 panelists is 25 or more)” and the Odor result is “◯ (◯: Total score of 10 panelists is 20-24)”. In addition, the “Melanin production inhibition effect” value in data set [3] is reported as “++ (40-60%: ++)”. Besides, the “Collagen production promoting effect” value in data set [4] is listed as “+ (100-120%: +)”.

For `CCCCCCCCCCCCCCC(O)COC1=C(OCC(C)(C)O)[C@@H]([C@@H](O)CO)OC1=O` (stereo partly drawn) [Synthesis Example 42, 3-O-(2-hydroxyisobutyl)-2-O-(2-hydroxyhexadecyl) ascorbic acid], in data set [1], the “Hyaluronic acid production promoting effect” value was “+++ (150%: +++)”. In data set [2] (pH 6, 50° C., initial), the Residual rate entry is listed as “⊚ (⊚: 90% or more)”, the Coloring entry was “◯ (◯: Total score of 10 panelists is 25 or more)” and the Odor result is recorded as “◯ (◯: Total score of 10 panelists is 20-24)”. In data set [2] (setting [5]), the Residual rate entry is on record as “⊚ (⊚: 90% or more)”, the Coloring result is “◯ (◯: Total score of 10 panelists is 25 or more)” and the Odor result is “◯ (◯: Total score of 10 panelists is 20-24)”. Moreover, in data set [2] (setting [6]), the Residual rate result is “⊚ (⊚: 90% or more)”, the Coloring entry is recorded as “◯ (◯: Total score of 10 panelists is 25 or more)” and the Odor entry is recorded as “◯ (◯: Total score of 10 panelists is 20-24)”. The “Melanin production inhibition effect” value in data set [3] was “++ (40-60%: ++)”. The “Collagen production promoting effect” value in data set [4] is given as “+ (100-120%: +)”.

As for `CC(C)(O)COC1=C(OCC(O)c2ccccc2)C(=O)OC1C(O)CO` (stereo not drawn) [Synthesis Example 43, 3-O-(2-hydroxyisobutyl)-2-O-(2-hydroxyethylbenzene) ascorbic acid], in data set [1], the “Hyaluronic acid production promoting effect” value is “++ (120-150%: ++)”. Moreover, in data set [2] (pH 6, 50° C., initial), the Residual rate entry is given as “⊚ (⊚: 90% or more)”, the Coloring entry was “◯ (◯: Total score of 10 panelists is 25 or more)” and the Odor result is on record as “◯ (◯: Total score of 10 panelists is 20-24)”. Also, in data set [2] (setting [5]), the Residual rate result was “⊚ (⊚: 90% or more)”, the Coloring result was “◯ (◯: Total score of 10 panelists is 25 or more)” and the Odor result is “◯ (◯: Total score of 10 panelists is 20-24)”. Also, in data set [2] (setting [6]), the Residual rate entry is listed as “⊚ (⊚: 90% or more)”, the Coloring entry is on record as “◯ (◯: Total score of 10 panelists is 25 or more)” and the Odor result is “◯ (◯: Total score of 10 panelists is 20-24)”. Moreover, the “Melanin production inhibition effect” value in data set [3] is given as “++ (40-60%: ++)”. The “Collagen production promoting effect” value in data set [4] is “++ (120%: ++)”.
